Results from ChEMBL document CHEMBL1131558, “Synthesis of Dolastatin 15 mimetic peptoids” (1998).
Values after ≈ are worked out from the molar mass of the structure shown. Active and inactive are the calls of the source. The calls are words filed in the database; no cut-off is given here. Square brackets hold non-standard residues; d marks the D form. Peptide text beside a SMILES is read from it. * marks the point of attachment. X1 = COC1=CC(=O)N(C(=O)[C@@H](O*)C(C)C)[C@H]1Cc1ccccc1; NMe2Val = CC(C)[C@@H](C(=O)*)N(C)C; NMeV = CN[C@H](C(=O)O)C(C)C

How the values were obtained:
L1210 = assay: Anticancer activity was determined by the inhibition of colony formation in liquid culture of L-1210 leukemia cells up to the concentration 31.6 ug/mL; NI means No inhibition; format: functional, cell-based; details: Mus musculus
Homo sapiens = species on record: Homo sapiens; assay: Anticancer activity was determined by the inhibition of colony formation in liquid culture of KB human epidermoid carcinoma cells up to the concentration 31.6 ug/mL; NI means No inhibition; format: functional
SK-OV-3 = assay: Anticancer activity was determined by the inhibition of colony formation in liquid culture of SK-OV-3 ovarian cancer cells up to the concentration 31.6 ug/mL; NI means No inhibition; format: functional, cell-based; details: Homo sapiens
LNCaP = assay: Anticancer activity was determined by the inhibition of colony formation in liquid culture of up to the concentration 31.6 ug/mL; NI means No inhibition; format: functional, cell-based; details: Homo sapiens
P388 = assay: Anticancer activity against lymphocytic leukemia P388 cells was determined; format: functional; details: Mus musculus, read-out: ED50 (the source's name)

| SMILES | Activity (L1210) | Activity (Homo sapiens) | Activity (SK-OV-3) | Activity (LNCaP) | EC50 (P388) [ng/mL] |
| --- | --- | --- | --- | --- | --- |
| CC(=O)N(CC(=O)N(CC(=O)N1CCC[C@@H]1C(=O)N1CCC[C@@H]1C(=O)N(CC(=O)N(CC(=O)O)C(C)C)C(C)C)C(C)C)Cc1ccccc1 (single isomer, unassigned) | inactive | inactive | inactive | inactive |  |
| COC1=CC(=O)N(C(=O)[C@@H](OC(=O)[C@@H]2CCCN2C(=O)[C@@H]2CCCN2C(=O)[C@H](C(C)C)N(C)C(=O)[C@@H](NC(=O)[C@H](C(C)C)N(C)C)C(C)C)C(C)C)[C@H]1Cc1ccccc1 [DOLASTATIN 15] (NMe2Val-V[NMeV]PP-X1) |  |  |  |  | 2.4 (≈ 2.87 nM) |
| CC(=O)N(CC(=O)N(CC(=O)N1CCC[C@@H]1C(=O)N1CCC[C@@H]1C(=O)N(CC(=O)N(CC(=O)N(C(C)C)C(C)C)C(C)C)Cc1ccccc1)C(C)C)Cc1ccccc1 (single isomer, unassigned) | inactive | inactive | inactive | inactive |  |
| CC(C)N(CC(=O)O)C(=O)CN(C(=O)[C@H]1CCCN1C(=O)[C@H]1CCCN1C(=O)CN(C(=O)CNCc1ccccc1)C(C)C)C(C)C (single isomer, unassigned) | inactive | inactive | inactive | inactive |  |
| CC(=O)N(CC(=O)N(CC(=O)N1CCCC1C(=O)N1CCC[C@H]1C(=O)N(CC(=O)N(CC(=O)N(C(C)C)C(C)C)C(C)C)C(C)C)C(C)C)Cc1ccccc1 (single isomer, unassigned) | inactive | inactive | inactive | inactive |  |
| CC(=O)N(CC(=O)N(CC(=O)N1CCC[C@@H]1C(=O)N1CCC[C@@H]1C(=O)N(CC(=O)N(CC(=O)N(C(C)C)C(C)C)C(C)C)C(C)C)C(C)C)Cc1ccccc1 (single isomer, unassigned) | inactive | inactive | inactive | inactive |  |
| CC[C@H](C)[C@@H]([C@@H](CC(=O)N1CCC[C@H]1[C@H](OC)[C@@H](C)C(=O)N[C@@H](Cc1ccccc1)c1nccs1)OC)N(C)C(=O)[C@@H](NC(=O)[C@H](C(C)C)N(C)C)C(C)C [DOLASTATIN-10] |  |  |  |  | 0.1 (≈ 0.127 nM) |
| CC(C)N(CC(=O)N(C(C)C)C(C)C)C(=O)CN(C(=O)[C@H]1CCCN1C(=O)[C@H]1CCCN1C(=O)OCc1ccccc1)C(C)C (single isomer, unassigned) | inactive | inactive | inactive | inactive |  |
| CC(=O)N(CC(=O)N(CC(=O)N1CCC[C@H]1C(=O)N1CCC[C@H]1C(=O)N(CC(=O)N(CC(=O)N(C(C)C)C(C)C)C(C)C)C(C)C)C(C)C)Cc1ccccc1 | inactive | inactive | inactive | inactive |  |
| CC(=O)N(CC(=O)N(CC(=O)N1CCC[C@H]1C(=O)N1CCCC1C(=O)N(CC(=O)N(CC(=O)N(C(C)C)C(C)C)C(C)C)C(C)C)C(C)C)Cc1ccccc1 (single isomer, unassigned) | inactive | inactive | inactive | inactive |  |
